From paper PMC5511861, “DS16570511 is a small-molecule inhibitor of the mitochondrial calcium uniporter” (Cell Death Discovery, 2017)

Experiments:
[1] = tested on: Ca2+ uptake of rat heart mitochondria; assay: Ca2+ uptake assay using isolated rat heart mitochondria (atomic absorbance spectrometer); format: biochemical; conditions: 100 μM CaCl2; read-out: IC50, inhibition of Ca2+ uptake of rat heart mitochondria
Procedure: We then asked whether DS16570511 inhibits Ca^2+ uptake in isolated mitochondria from animal heart. An atomic absorbance spectrometer-based detection method was employed to analyze intramitochondrial Ca^2+ levels. We prepared freshly isolated mitochondria from pig heart, and the mitochondria were incubated with 100 μM CaCl2.
Figure 3 DS16570511 inhibits Ca^2+ uptake in isolated heart mitochondria. (a) Effect of RuR on Ca^2+ uptake of pig heart mitochondria. […] Data are mean with S.E.M. from three independent samples. (b) Inhibition rate of RuR or DS16570511 on Ca^2+ uptake of pig heart mitochondria. Inhibition 0 or 100% is defined as a value of Ca^2+-untreated mitochondria or Ca^2+-treated mitochondria, respectively. Data are mean with S.E.M. from three independent samples. (c) Inhibition rate of RuR or DS16570511 on Ca^2+ uptake of rat heart mitochondria. Data are mean with S.E.M./variation from three or two independent samples for DS16570511 or RuR, respectively.
Mitochondria were isolated by using the mitochondria isolation kit and then dissolved in the swelling buffer. The protein concentration of the mitochondrial solution was 5 mg/ml. […] The solution was then diluted by water, and Ca^2+ concentration of the solution was measured by atomic absorbance spectrometer (Hitachi High-Technologies Corporation, Z-2710, Tokyo, Japan).

MCU = target: T1, MCU (Homo sapiens, UniProt Q8NE86); assay: MCU-dependent mitochondrial Ca2+ influx in HEK293A cells overexpressing human MCU; format: cell-based; conditions: pretreatment
T1 construct: expressed in transfected cells; host or cells: HEK293A cells, transient co-transfection with the mitochondria-targeted aequorin vector
T1 sequence (Q8NE86 51-351): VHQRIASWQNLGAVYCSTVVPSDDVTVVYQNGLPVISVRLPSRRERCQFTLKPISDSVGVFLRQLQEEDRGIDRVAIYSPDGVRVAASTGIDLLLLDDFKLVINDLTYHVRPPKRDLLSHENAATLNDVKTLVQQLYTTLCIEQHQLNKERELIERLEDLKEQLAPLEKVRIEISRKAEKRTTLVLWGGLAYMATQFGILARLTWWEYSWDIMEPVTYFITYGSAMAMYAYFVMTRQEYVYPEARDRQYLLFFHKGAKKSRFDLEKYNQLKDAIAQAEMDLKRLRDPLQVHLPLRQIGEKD
T1 sequence (Q9H4I9 48-107 partner limits assumed): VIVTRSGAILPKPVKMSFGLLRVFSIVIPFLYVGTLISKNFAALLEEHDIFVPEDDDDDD
Source text: (§1) Next, to investigate the molecular component of the mitochondrial calcium uniporter, MCU-dependent and MICU-dependent Ca^2+ influx were examined. […] The MCU-dependent increment of Ca^2+ influx was blocked by the DS16570511 pretreatment (Figure 5b). We then investigated the effects of the inhibitor on the regulatory subunit MICU1. Previous studies have shown that MICU1 facilitates mitochondrial Ca^2+ uptake through the presence of a high Ca^2+ level.[11],[22]
(§2) Figure 5 DS16570511 inhibits mitochondrial Ca^2+ influx by MCU or MICU1. (a) Effect of overexpression of MCU or MICU1 on mitochondrial Ca^2+ influx in HEK293A cells. (b) Effect of DS16570511 on MCU-dependent mitochondrial Ca^2+ uptake in HEK293A cells. (c) Effect of DS16570511 on MICU1-dependent mitochondrial Ca^2+ uptake in HEK293A cells. […]
(§3) In order to evaluate mitochondrial Ca^2+ uptake activity by MCU or MICU1, HEK293A cells were transiently transfected with the mitochondria-targeted aequorin vector and pcDNA3.1 vector containing human Mcu (NCBI Reference Sequence: NM_138357.2) or Micu1 (NM_001195518.1). One day after the transfection, the luminescence levels were measured as described above. MCU- or MICU1-dependent activity was calculated by subtracting the luminescence level of cells transfected with empty vector from that of cells expressing MCU or MICU1, respectively.

MICU1 = target: T2, MICU1 (Homo sapiens, UniProt Q9BPX6); assay: MICU1-dependent mitochondrial Ca2+ influx in HEK293A cells overexpressing human MICU1; format: cell-based; conditions: HEK293A cells overexpressing MICU1, serum-induced
T2 construct: expressed in transfected cells; host or cells: HEK293A cells, transient co-transfection with the mitochondria-targeted aequorin vector
T2 sequence (Q9BPX6 34-476): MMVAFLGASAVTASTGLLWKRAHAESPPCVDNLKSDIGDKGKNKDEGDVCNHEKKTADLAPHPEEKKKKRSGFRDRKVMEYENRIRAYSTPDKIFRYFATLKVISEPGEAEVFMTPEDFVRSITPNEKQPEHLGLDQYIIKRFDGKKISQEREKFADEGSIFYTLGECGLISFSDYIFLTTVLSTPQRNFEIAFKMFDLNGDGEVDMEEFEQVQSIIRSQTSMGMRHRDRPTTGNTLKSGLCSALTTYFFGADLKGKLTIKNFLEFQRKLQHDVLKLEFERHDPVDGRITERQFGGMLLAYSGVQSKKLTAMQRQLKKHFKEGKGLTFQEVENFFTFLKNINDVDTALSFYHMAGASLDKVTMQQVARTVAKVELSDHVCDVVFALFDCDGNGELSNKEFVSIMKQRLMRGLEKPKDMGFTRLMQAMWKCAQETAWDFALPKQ
Source text: as §1, §2, §3

Cc1onc(-c2c(Cl)cccc2Cl)c1CNc1cccc(C(=O)c2cn(CCCC(=O)O)c3ccccc23)c1 [DS16570511]
IC50 [1]: 25 µM | effect on MCU-dependent increment of mitochondrial Ca2+ influx (MCU): blocked | effect on MICU1-dependent activation of the uniporter (MICU1): blocked by DS16570511 in a dose-dependent manner
